Series [1] relates to lipid peroxidation (MDA) in liver. As to the kind of experiment: In vivo lipid peroxide level (TBARS/MDA) in liver homogenate. Also on record: species or system male Wistar albino rats. The settings on record: rat liver; 100 mg/kg orally for 3 days; mean ± SEM, n = 6. Here is the method: (§1) The complete progress of the experiment was conducted using male Wistar albino rats (200–250 g), delivered by the Institutional Breeding House, Egypt, reared and maintained in the animal house of the institution. The animals had free access to food and water ad libitum and maintained in a controlled environment under standard conditions of temperature and humidity with an alternating 12 h light and dark cycle for about a week for acclimatization. The protocol of the study was approved by the Animal Ethics Committee of the Faculty of Pharmacy, Helwan University (ethical code number: 05A2019; date: October 2019). The study was conducted in accordance with the EC, directive 86/609/EEC for animal experiments.
(§2) Rats are weighed at the beginning and at the end of experiment. Fifty-four male albino rats (n=6) were divided into nine different groups. Group I served as a control group and treated with the same volume vehicle only. Group II treated with 100 mg/kg of Ascorbic acid as standard antioxidant drug. Groups (III–IX) orally administered 100 mg/kg of compounds 3a, 4e, 5b, 5c, 6a, 6c, 6e, respectively, for 3 days. The animals were sacrificed by cervical dislocation 24 h after the last dose. Sacrificing is carried out at the same time of the day, to avoid the circadian variation in the level of tissue GSH[53]. Each liver was excised, weighed, rinsed in ice-cold normal saline and frozen for not more than 72 h await analysis of endogenous antioxidant status (GSH levels and CAT activity) and lipid peroxide concentrations. For performing biochemical assays, a 10% liver homogenate in 10 mM phosphate buffer was prepared using tissue homogeniser (Glas-Col®, Cat no.099C K6424, TERRE HAUTE, USA).
Lipid peroxidation level in the liver homogenates was determined as thiobarbituric acid reactive substances (TBARS) by measuring malondialdehyde ‘MDA’ level according to Mihara and Uchiyama[56]. Briefly, 0.5 mL supernatant of tissue homogenate was mixed with 0.6% thiobarbituric acid (TBA) and 1% orthophosphoric acid solution, and heated in a boiling water bath for 45 min. The pink-coloured chromogen formed by the reaction of TBA with MDA was extracted by n-butanol and measured at 535 nm. The results were expressed as nmol/g tissue.

The test system of series [2] is glutathione (GSH) in liver. As to the kind of experiment: In vivo reduced glutathione (GSH) level in liver homogenate. The settings on record: rat liver; 100 mg/kg orally for 3 days; mean ± SEM, n = 6. The arrangement: species or system male Wistar albino rats. How it is done: as §1, §2
Levels of glutathione (GSH) in liver homogenates were assayed by the deproteinization of tissue homogenate. Then […] supernatant was mixed with di-potassium hydrogen phosphate buffer (pH 8) and 0.4% 5,5′-dithiobis-2-nitrobenzoic acid (Ellman’s reagent). The yellow-coloured substance formed was measured at 412 nm. The results were expressed as GSH mg/g tissue.

Series [3] in a line: Superoxide scavenging assay (pyrogallol autoxidation). To be noted: mean ± SEM of three experiments; pyrogallol autoxidation, 325 nm. How it is done:
The improved pyrogallol autoxidation method was used to determine O2^−. RSA of all synthesized compounds as previously described. Briefly, 50 µL of test compounds (12.5, 25, 50,100, and 200 µg/mL) was added to 2900 µl of […] Tris HCl buffer (0.05 M, pH 7.4) containing 1-mM Na2EDTA. Next, 50 µL of 60-mM pyrogallol in1mM HCl had been thoroughly mixed with the mixture. The absorbance of the reaction mixture was measured at A325 nm every 30 s for 5 min. O2^− RSA was expressed by the oxidation degree of a test group in comparison to that of the control. The absorbance at 325 nm was measured against the Tris-HCl buffer every 30 s for 5 min. The percentage of scavenging effect was calculated using the following equation: O2^− radical scavenging %=[(ΔA325, control/T)−(ΔA325nm, sample/T)/ΔA325nm, control/T]×100 where ΔA325 nm, control is the increase in A325 nm of the reaction mixture without the sample and ΔA325 nm, sample is that for the mixture with the sample; T=5 min. The experiments were performed in triplicate.

Series [4] relates to Catalase (CAT) activity in liver. As to the kind of experiment: In vivo catalase (CAT) activity in liver homogenate. The arrangement: species or system male Wistar albino rats. To be noted: rat liver; 100 mg/kg orally for 3 days; mean ± SEM, n = 6. How it is done: as §1, §2
Catalase activity in 10% liver homogenates was determined spectrophotometrically according to Sinha AK[54]. The decrease in absorbance at 240 nm due to H2O2 decomposition was measured and the results were expressed in U/mg tissue.

The nature of series [5]: NO scavenging assay (sodium nitroprusside / Griess reagent). The settings on record: mean ± SEM of three experiments; 90 min, 546 nm. How it is done: The NO scavenging activity of all synthesized compounds was measured as previously described by Ho et al.[50] Briefly, 50 µL of different concentrations of the tested compounds (12.5, 25, 50,100, and 200 µg/mL) were pipetted into a 96-well plate. Then, 50 µL of 10-mM sodium nitroprussides dissolved in phosphate-buffered saline PBS (pH 7.4) were added to each well and the plate was incubated for 90 min at room temperature. Next, an equal volume of Griess reagent (1% of sulphanilamide and 0.1% of naphthyl ethylene diamine in 2.5% […]) was added to each well to measure the nitrite content. The absorbance of the formed pink-coloured chromophore was measured at λ 546 nm. DMSO and ascorbic acid were used as the negative and positive control, respectively. All tests were performed in triplicate. The percentage of NO scavenging activity was calculated according to the following equation: % of NO scavenging=[(Acontrol−Asample)/Acontrol]×100 where Acontrol is the absorbance of the control reaction (with all reagents except the test compound), and Asample is the absorbance of the test sample.

A short description of series [6]: DPPH radical scavenging assay. The settings on record: mean ± SEM of three experiments; 30 min, 517 nm. Here is the method: The DPPH scavenging activity of all synthesized compounds was measured as previously described by Nahar et al.[48] with some modifications. Briefly, 100 µL of different concentrations of the tested compounds (12.5, 25, 50, 100, and 200 µg/mL) were pipetted into a 96-well plate. Then, 100 µL of 100-µM DPPH methanolic solution were added to each well and the plate was incubated protected from light at room temperature for 30 min. The absorbance of the solution was measured at λ517 nm.[49] Ascorbic acid was used as the positive control while DMSO was the negative control. The percentage of DPPH scavenging activity was calculated according to the following equation: % of DPPH scavenging=[(Acontrol–Asample)/Acontrol] ×100, where Acontrol is the absorbance of the control reaction (with all reagents except the test compound), and Asample is the absorbance of the test sample. […] All tests were performed in triplicates.

On the set-up of series [7]: method as in PMID 24752861. To be noted: at 10^−4 M concentration; cited from earlier work.
In the next series the target is T1, Soybean 15-LOX enzyme (Glycine max, UniProt P08170).
T1 construct: purchased Cayman Chemical 760700
T1 sequence (P08170 1-839): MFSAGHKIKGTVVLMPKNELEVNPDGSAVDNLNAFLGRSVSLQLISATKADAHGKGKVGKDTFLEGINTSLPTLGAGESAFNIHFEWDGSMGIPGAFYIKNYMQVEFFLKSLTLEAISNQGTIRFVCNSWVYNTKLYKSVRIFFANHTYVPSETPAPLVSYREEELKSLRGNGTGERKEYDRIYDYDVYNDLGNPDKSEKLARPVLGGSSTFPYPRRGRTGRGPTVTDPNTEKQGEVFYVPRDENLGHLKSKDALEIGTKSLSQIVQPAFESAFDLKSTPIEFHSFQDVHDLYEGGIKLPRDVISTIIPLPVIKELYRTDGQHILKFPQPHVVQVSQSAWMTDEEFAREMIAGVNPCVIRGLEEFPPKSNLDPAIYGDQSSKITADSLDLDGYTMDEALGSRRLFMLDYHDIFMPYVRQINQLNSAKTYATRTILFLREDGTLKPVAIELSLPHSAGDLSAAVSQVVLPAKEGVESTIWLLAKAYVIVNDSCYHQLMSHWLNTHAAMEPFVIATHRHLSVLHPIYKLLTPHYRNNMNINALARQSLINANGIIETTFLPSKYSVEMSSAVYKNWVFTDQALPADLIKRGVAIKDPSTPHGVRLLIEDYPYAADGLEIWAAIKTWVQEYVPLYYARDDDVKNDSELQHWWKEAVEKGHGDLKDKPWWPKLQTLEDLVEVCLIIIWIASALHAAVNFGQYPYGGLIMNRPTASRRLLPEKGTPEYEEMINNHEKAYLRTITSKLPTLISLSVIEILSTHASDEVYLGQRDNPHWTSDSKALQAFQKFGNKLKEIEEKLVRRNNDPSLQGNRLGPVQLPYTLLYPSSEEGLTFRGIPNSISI
Briefly: In vitro lipoxygenase inhibition (Cayman lipoxygenase inhibitor screening assay kit). Type of series: biochemical. To be noted: mean ± SEM of three experiments; substrate arachidonic acid. Here is the method: The assay was performed using Cayman’s lipoxygenase inhibitor screening assay kit (Catalog No. 760700, Cayman Chemical, USA) according to the manufacturer’s instructions. Briefly, 90 µL of 15-LOX was pipetted into a 96-well plate. Next, 10 µL of test compound at concentrations (2.5, 5.0 and 10 µM) dissolved in DMSO were added to each well. The reaction was initiated by adding 10 µL substrate (AA) and the plate was placed on a shaker for at least 5 minutes. Finally, 100 µL of chromogen (prepared according to manufacturer’s instructions) was added to each well to stop enzyme catalysis and develop the reaction. 100 µL of Assay buffer (0.1 M Tris-HCl, pH7.4) was used in blank wells. […] The absorbance of the solution was measured at λ 490–500 nm. The percentage inhibition was calculated according to the following equation: % inhibition =[(IA−Ainhibitor sample)/IA]×100 where (IA) is the 100% initial activity and (Ainhibitor sample) is the absorbance of the test sample. Dose–response curve was plotted between % inhibition and the drug concentration. The non-linear dose–response curve was used for calculating drug concentration showing 50% enzyme inhibition.

Each structure is given as a SMILES string.

For `O=C1O[C@H]([C@@H](O)CO)C(O)=C1O` [Ascorbic acid, reference compound], in series [1], the TBARS turned out to be 0.392 ± 0.07 nmol/g tissue. The GSH in [2] amounted to 8.25 ± 0.45 mg/g tissue. In series [3], the “Superoxide IC50” value is 124.99 ± 1.32 µg/mL. The molecule also returned a CAT in [4] of 42.56 ± 3.76 U/mg tissue. The “NO IC50” value in series [5] was 37.9 ± 1.31 µg/mL. Moreover, the “DPPH IC50” value in series [6] was found to be 13.67 ± 0.97 µg/mL.

In the case of `Cc1cc(C(C)(C)C)c(O)c(C(C)(C)C)c1` [BHT7, butylated hydroxy toluene], the DPPH scavenging activity in [7] is on record as 20%.

With `NC(=S)N1N=C(c2ccc(Cl)cc2)CC1c1cn(-c2ccccc2)nc1-c1ccc2ccccc2c1` (stereo not shown) [Compound 6d], the melting point fell in the range of 186 to 187 °C. The IC50 on Soybean 15-LOX enzyme came to 1670 ± 30 nM. Moreover, the “Superoxide IC50” value in series [3] was more than 200 µg/mL. Further, the “NO IC50” value in [5] is recorded as 148.08 ± 1.36 µg/mL. In addition, the “DPPH IC50” value in [6] is on record as more than 200 µg/mL.

As to `NS(=O)(=O)c1ccc(N2N=C(c3ccco3)CC2c2cnn(-c3ccccc3)c2)cc1` (stereo not shown) [XI], the DPPH scavenging activity in [7] is reported as 19%.
